The text below walks through data of PubChem BioAssay (NCI).

Each structure is given as a SMILES string.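 Cultured in 96-well plates, cells were exposed to test compound for 48 hours across five concentrations. Definition used: TGI = concentration required for complete inhibition of growth.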 A value given as a limit tells only on which side of the number the result lay.

For the first experiment, the system named is SNB-19 CNS. Nature of the experiment: growth of human tumour cells (NCI), 48 h.
`Cc1oc2nc(N(C)C)n3nnnc3c2c1C` had a TGI of over 100 µM.

For `C[C@@H]1C[C@H](O)[C@]2(O)O[C@@H]3C[C@@]4(C=O)[C@@H](CC=C5[C@@H]4CC[C@]4(C)[C@@H](C6=CC(=O)OC6)CC[C@]54O)C[C@H]3O[C@@H]2O1`, the TGI is 0.93 µM.

`Cc1nc(Cl)c(CBr)c(Cl)n1` came in with a TGI of 11.2 µM.

For the compound `C[C@]12CC/C(=N\O)C=C1CC[C@@H]1[C@@H]2CC[C@]2(C)C(=N/O)/C(=C/c3cccnc3)C[C@@H]12`, the TGI was over 100 µM.

Regarding `N#CSCc1cccc(Nc2cc(=O)[nH]c(=O)[nH]2)c1`, the TGI was over 100 µM.

`COc1ccc2c(c1)C(=O)c1ccccc1C2` gave a TGI of over 100 µM.

On to `O=c1nc2c(c(-c3cccc(Cl)c3)[nH]1)COC/C2=C\c1cccc(Cl)c1`, for which the TGI was over 100 µM.

The compound `CC(C)/C(Cl)=N\OC(=O)NNc1ccccc1` registered a TGI of over 100 µM.

The compound `CC1=CC=CC(C)(C)CC1(O[Si](C)(C)C)C(F)(F)F` (stereo unspecified) gave a TGI of over 100 µM.

As to `CN(O)C(=O)Cc1ccc(OCc2cccc(Cl)c2)cc1`, the TGI was over 100 µM.

For `CN1C(=O)CN(NC(=O)C2=C(O)c3ccc(Br)cc3S(=O)(=O)N2)C1=S`, the TGI was over 100 µM.

In the case of `CC1=C2c3ccccc3N(C(=O)/C=C/C(=O)O)[C@H]2[C@H]2C(=O)OC(=O)[C@H]2C1`, the TGI is over 10 µM.

Compound `CCN(CCCN(CC)C(=O)N[C@@H](Cc1ccccc1)C(=O)NC)C(=O)N[C@@H](Cc1ccccc1)C(=O)NC` had a TGI of over 100 µM.

`CN1CCN(C(=S)N(C)C(=O)c2ccc(Cl)cc2)CC1` showed a TGI of over 100 µM.

Consider `CC(C)(CO)N1C(=O)c2ccccc2C1(O)c1ccc(Cl)cc1` (stereo unspecified), for which the TGI is over 100 µM.

The compound `O=C1/C(=C/c2ccc(F)cc2)CNC/C1=C\c1ccc(F)cc1` yielded a TGI of 6.2 µM.

`C/C(=N/NC(=S)Nc1cccc(C)c1)c1ccccn1` registered a TGI of 14.3 µM.

`O=C1/C(=C/c2ccc(Br)s2)NC(=S)N1CN1CCOCC1`: the TGI is over 100 µM.

Compound `Cc1ccc(C(=O)Nc2ccc(CP(=O)(O)O)cc2)cc1NC(=O)c1cccc(NC(=O)Nc2cccc(C(=O)Nc3cc(C(=O)Nc4ccc(CP(=O)(O)O)cc4)ccc3C)c2)c1` returned a TGI of over 100 µM.

As for `NCCCC(N)C(=O)O` (stereo unspecified), the TGI is over 100 µM.

For the compound `CCOC(=O)c1c(N)n(-c2ccccc2)c(=S)n(-c2ccccc2)c1=O`, the TGI was over 100 µM.

For the next experiment, the system named is NCI-H522 lung. Nature of the experiment: growth of human tumour cells (NCI), 48 h.
Turning to `Cc1oc2nc(N(C)C)n3nnnc3c2c1C`, the TGI was over 100 µM.

In turn, `C[C@@H]1C[C@H](O)[C@]2(O)O[C@@H]3C[C@@]4(C=O)[C@@H](CC=C5[C@@H]4CC[C@]4(C)[C@@H](C6=CC(=O)OC6)CC[C@]54O)C[C@H]3O[C@@H]2O1` came in with a TGI of 0.0468 µM.

The compound `Cc1nc(Cl)c(CBr)c(Cl)n1` showed a TGI of 1.15 µM.

The compound `C[C@]12CC/C(=N\O)C=C1CC[C@@H]1[C@@H]2CC[C@]2(C)C(=N/O)/C(=C/c3cccnc3)C[C@@H]12` came in with a TGI of 45.2 µM.

Turning to `N#CSCc1cccc(Nc2cc(=O)[nH]c(=O)[nH]2)c1`, the TGI is over 100 µM.

With `COc1ccc2c(c1)C(=O)c1ccccc1C2`, the TGI was over 100 µM.

`O=c1nc2c(c(-c3cccc(Cl)c3)[nH]1)COC/C2=C\c1cccc(Cl)c1` displayed a TGI of over 100 µM.

`CC(C)/C(Cl)=N\OC(=O)NNc1ccccc1` came in with a TGI of 28.7 µM.

The compound `CC1=CC=CC(C)(C)CC1(O[Si](C)(C)C)C(F)(F)F` (stereo unspecified) had a TGI of over 100 µM.

On to `CN(O)C(=O)Cc1ccc(OCc2cccc(Cl)c2)cc1`, for which the TGI was over 100 µM.

With `CN1C(=O)CN(NC(=O)C2=C(O)c3ccc(Br)cc3S(=O)(=O)N2)C1=S`, the TGI is over 100 µM.

The compound `CC1=C2c3ccccc3N(C(=O)/C=C/C(=O)O)[C@H]2[C@H]2C(=O)OC(=O)[C@H]2C1` returned a TGI of over 10 µM.

On to `CCN(CCCN(CC)C(=O)N[C@@H](Cc1ccccc1)C(=O)NC)C(=O)N[C@@H](Cc1ccccc1)C(=O)NC`, for which the TGI was over 100 µM.

With `CN1CCN(C(=S)N(C)C(=O)c2ccc(Cl)cc2)CC1`, the TGI was over 100 µM.

In turn, `CC(C)(CO)N1C(=O)c2ccccc2C1(O)c1ccc(Cl)cc1` (stereo unspecified) yielded a TGI of over 100 µM.

With `O=C1/C(=C/c2ccc(F)cc2)CNC/C1=C\c1ccc(F)cc1`, the TGI turned out to be 3.26 µM.

Consider `C/C(=N/NC(=S)Nc1cccc(C)c1)c1ccccn1`, for which the TGI was determined as 7.23 µM.

`O=C1/C(=C/c2ccc(Br)s2)NC(=S)N1CN1CCOCC1` yielded a TGI of over 100 µM.

Take `Cc1ccc(C(=O)Nc2ccc(CP(=O)(O)O)cc2)cc1NC(=O)c1cccc(NC(=O)Nc2cccc(C(=O)Nc3cc(C(=O)Nc4ccc(CP(=O)(O)O)cc4)ccc3C)c2)c1`: the TGI was over 100 µM.

In turn, `NCCCC(N)C(=O)O` (stereo unspecified) gave a TGI of over 100 µM.

In the case of `CCOC(=O)c1c(N)n(-c2ccccc2)c(=S)n(-c2ccccc2)c1=O`, the TGI is over 100 µM.

Another experiment relates to LOX IMVI melanoma. Nature of the experiment: growth of human tumour cells (NCI), 48 h.
`Cc1oc2nc(N(C)C)n3nnnc3c2c1C`: the TGI was over 100 µM.

Compound `Cc1nc(Cl)c(CBr)c(Cl)n1` returned a TGI of 1.77 µM.

`C[C@]12CC/C(=N\O)C=C1CC[C@@H]1[C@@H]2CC[C@]2(C)C(=N/O)/C(=C/c3cccnc3)C[C@@H]12` yielded a TGI of 9.74 µM.

Turning to `N#CSCc1cccc(Nc2cc(=O)[nH]c(=O)[nH]2)c1`, the TGI was over 100 µM.

Turning to `COc1ccc2c(c1)C(=O)c1ccccc1C2`, the TGI is over 100 µM.

The compound `O=c1nc2c(c(-c3cccc(Cl)c3)[nH]1)COC/C2=C\c1cccc(Cl)c1` registered a TGI of over 100 µM.

`CC(C)/C(Cl)=N\OC(=O)NNc1ccccc1` showed a TGI of 36.9 µM.

Take `CC1=CC=CC(C)(C)CC1(O[Si](C)(C)C)C(F)(F)F` (stereo unspecified): the TGI was over 100 µM.

In turn, `CN(O)C(=O)Cc1ccc(OCc2cccc(Cl)c2)cc1` had a TGI of over 100 µM.

The compound `CN1C(=O)CN(NC(=O)C2=C(O)c3ccc(Br)cc3S(=O)(=O)N2)C1=S` gave a TGI of over 100 µM.

With `CCN(CCCN(CC)C(=O)N[C@@H](Cc1ccccc1)C(=O)NC)C(=O)N[C@@H](Cc1ccccc1)C(=O)NC`, the TGI is over 100 µM.

Consider `CN1CCN(C(=S)N(C)C(=O)c2ccc(Cl)cc2)CC1`, for which the TGI was over 100 µM.

In turn, `O=C1/C(=C/c2ccc(F)cc2)CNC/C1=C\c1ccc(F)cc1` came in with a TGI of 2.33 µM.

Compound `C/C(=N/NC(=S)Nc1cccc(C)c1)c1ccccn1` showed a TGI of 9.93 µM.

As for `O=C1/C(=C/c2ccc(Br)s2)NC(=S)N1CN1CCOCC1`, the TGI was determined as 61.4 µM.

`Cc1ccc(C(=O)Nc2ccc(CP(=O)(O)O)cc2)cc1NC(=O)c1cccc(NC(=O)Nc2cccc(C(=O)Nc3cc(C(=O)Nc4ccc(CP(=O)(O)O)cc4)ccc3C)c2)c1` had a TGI of over 100 µM.

In turn, `NCCCC(N)C(=O)O` (stereo unspecified) came in with a TGI of over 100 µM.

Consider `CCOC(=O)c1c(N)n(-c2ccccc2)c(=S)n(-c2ccccc2)c1=O`, for which the TGI is over 100 µM.

The next experiment concerns SF-268 CNS. Nature of the experiment: growth of human tumour cells (NCI), 48 h.
Compound `Cc1oc2nc(N(C)C)n3nnnc3c2c1C` came in with a TGI of over 100 µM.

`C[C@@H]1C[C@H](O)[C@]2(O)O[C@@H]3C[C@@]4(C=O)[C@@H](CC=C5[C@@H]4CC[C@]4(C)[C@@H](C6=CC(=O)OC6)CC[C@]54O)C[C@H]3O[C@@H]2O1` registered a TGI of 0.166 µM.

`Cc1nc(Cl)c(CBr)c(Cl)n1`: the TGI is 8.85 µM.

Turning to `N#CSCc1cccc(Nc2cc(=O)[nH]c(=O)[nH]2)c1`, the TGI was 78.4 µM.

The compound `COc1ccc2c(c1)C(=O)c1ccccc1C2` showed a TGI of over 100 µM.

Compound `O=c1nc2c(c(-c3cccc(Cl)c3)[nH]1)COC/C2=C\c1cccc(Cl)c1` had a TGI of over 100 µM.

`CC(C)/C(Cl)=N\OC(=O)NNc1ccccc1` gave a TGI of over 100 µM.

Turning to `CC1=CC=CC(C)(C)CC1(O[Si](C)(C)C)C(F)(F)F` (stereo unspecified), the TGI is over 100 µM.

In turn, `CN(O)C(=O)Cc1ccc(OCc2cccc(Cl)c2)cc1` displayed a TGI of over 100 µM.

On to `CN1C(=O)CN(NC(=O)C2=C(O)c3ccc(Br)cc3S(=O)(=O)N2)C1=S`, for which the TGI is over 100 µM.

Turning to `CC1=C2c3ccccc3N(C(=O)/C=C/C(=O)O)[C@H]2[C@H]2C(=O)OC(=O)[C@H]2C1`, the TGI was over 10 µM.

As for `CCN(CCCN(CC)C(=O)N[C@@H](Cc1ccccc1)C(=O)NC)C(=O)N[C@@H](Cc1ccccc1)C(=O)NC`, the TGI is over 100 µM.

`CN1CCN(C(=S)N(C)C(=O)c2ccc(Cl)cc2)CC1` displayed a TGI of over 100 µM.

Compound `CC(C)(CO)N1C(=O)c2ccccc2C1(O)c1ccc(Cl)cc1` (stereo unspecified) yielded a TGI of over 100 µM.

As for `O=C1/C(=C/c2ccc(F)cc2)CNC/C1=C\c1ccc(F)cc1`, the TGI was determined as 4.06 µM.

In turn, `C/C(=N/NC(=S)Nc1cccc(C)c1)c1ccccn1` had a TGI of 13.9 µM.

`O=C1/C(=C/c2ccc(Br)s2)NC(=S)N1CN1CCOCC1` yielded a TGI of over 100 µM.

In turn, `Cc1ccc(C(=O)Nc2ccc(CP(=O)(O)O)cc2)cc1NC(=O)c1cccc(NC(=O)Nc2cccc(C(=O)Nc3cc(C(=O)Nc4ccc(CP(=O)(O)O)cc4)ccc3C)c2)c1` had a TGI of over 100 µM.

Compound `NCCCC(N)C(=O)O` (stereo unspecified) gave a TGI of over 100 µM.

`CCOC(=O)c1c(N)n(-c2ccccc2)c(=S)n(-c2ccccc2)c1=O`: the TGI is over 100 µM.

In a further experiment the test system is NCI-H226 lung. Nature of the experiment: growth of human tumour cells (NCI), 48 h.
`Cc1oc2nc(N(C)C)n3nnnc3c2c1C` came in with a TGI of over 100 µM.

Compound `C[C@@H]1C[C@H](O)[C@]2(O)O[C@@H]3C[C@@]4(C=O)[C@@H](CC=C5[C@@H]4CC[C@]4(C)[C@@H](C6=CC(=O)OC6)CC[C@]54O)C[C@H]3O[C@@H]2O1` yielded a TGI of 0.233 µM.

With `Cc1nc(Cl)c(CBr)c(Cl)n1`, the TGI was determined as 6.73 µM.

`C[C@]12CC/C(=N\O)C=C1CC[C@@H]1[C@@H]2CC[C@]2(C)C(=N/O)/C(=C/c3cccnc3)C[C@@H]12`: the TGI worked out at 18.1 µM.

Regarding `N#CSCc1cccc(Nc2cc(=O)[nH]c(=O)[nH]2)c1`, the TGI was over 100 µM.

For the compound `COc1ccc2c(c1)C(=O)c1ccccc1C2`, the TGI is over 100 µM.

Compound `O=c1nc2c(c(-c3cccc(Cl)c3)[nH]1)COC/C2=C\c1cccc(Cl)c1` displayed a TGI of over 100 µM.

The compound `CC(C)/C(Cl)=N\OC(=O)NNc1ccccc1` had a TGI of 99.7 µM.

`CC1=CC=CC(C)(C)CC1(O[Si](C)(C)C)C(F)(F)F` (stereo unspecified) registered a TGI of over 100 µM.

In turn, `CN(O)C(=O)Cc1ccc(OCc2cccc(Cl)c2)cc1` showed a TGI of over 100 µM.

Compound `CN1C(=O)CN(NC(=O)C2=C(O)c3ccc(Br)cc3S(=O)(=O)N2)C1=S` displayed a TGI of over 100 µM.

With `CC1=C2c3ccccc3N(C(=O)/C=C/C(=O)O)[C@H]2[C@H]2C(=O)OC(=O)[C@H]2C1`, the TGI is over 10 µM.

Take `CCN(CCCN(CC)C(=O)N[C@@H](Cc1ccccc1)C(=O)NC)C(=O)N[C@@H](Cc1ccccc1)C(=O)NC`: the TGI is over 100 µM.

Compound `CN1CCN(C(=S)N(C)C(=O)c2ccc(Cl)cc2)CC1` gave a TGI of over 100 µM.

The compound `CC(C)(CO)N1C(=O)c2ccccc2C1(O)c1ccc(Cl)cc1` (stereo unspecified) showed a TGI of over 100 µM.

The compound `O=C1/C(=C/c2ccc(F)cc2)CNC/C1=C\c1ccc(F)cc1` gave a TGI of 15.3 µM.
